Laboratory results as given in PMC3213642 (The Biochemical journal, 2011).

Key:
[1] = target: FlaI (Sulfolobus acidocaldarius, UniProt Q4J9L0, E336A); test: size-exclusion chromatography and SAXS, hexamerization; assay type: binding; conditions: SAXS: pH 7.0, 200 mM NaCl, 1 mM ATP, 2.5 mM MgCl2, 20 °C
[2] = target: the molecule itself; test: SAXS

Molecule	size-exclusion chromatography and SAXS, hexamerization [1]	stoichiometry N [2]
Nc1ncnc2c1ncn2[C@@H]1O[C@H](COP(=O)(O)OP(=O)(O)OP(=O)(O)O)[C@@H](O)[C@H]1O [ATP]	FlaI^E336A with ATP clearly forms a hexameric ring similar to the one determined for GspE	–
N-terminal His-tagged FlaI^E336A (Walker B mutant) (enzyme, S. acidocaldarius DSM639, UniProt Q4J9L0 1-513, looked up) MSFVEDYLTKLQERPTIIENPNILKGSKIFNAIYRVDDFVYIHIQSIKSEDGYNQYNVIEPPRPTHDEMEEIEEKFALSIGDKEPPEDTKEKEKLIRSILDKILLRMRLSVPKEYVIYHFIRDKLYTGSLEPLIRDPYIEDISIPGLGHVYIVHKVFGPMRTSIKFENYEELDNLIVSLSEKSYRPVSHNRPVVDASLPDGSRVNFVYGVDISRRGSNLTVRKFSRVPTSITQLIMFGTLSSMMAAYIWTMLDEGMNLFVCGETASGKTTTLNAITAFIPPNLKIVTIEDTPELTVPHSNWVAEVTRETGGEGTIKLFDLLKAALRQRPNYILVGAIRDKEGNVAFQAMQTGHSVMATFHAANITTLIQRLTGYPIEVPKSYINNLNIALFQTALYDKKGNLIRRVVEVDEIIDIDPVTNDVVYIPAFTYDSVQDKMLFAGKGSSYLIENKIAVKRGIDRRNIGLLYDELQMRSRFLNLLVEKKIFNYYDVWDYILRARQMGLEEAIKYVSNI	–	6
